Assay results: patent US9403813B2, “Azetidine amide derivatives as orexin receptor antagonists” (ACTELION PHARMACEUTICALS LTD, priority 2013, dated 2016)

Experiments:
human orexin-2 receptor = human orexin-2 receptor (Homo sapiens (Human), UniProt O43614); assay: Intracellular calcium measurements (FLIPR), antagonism of orexin-A response; type: cell-based; details: CHO cells expressing human orexin-2 receptor, 3 nM orexin-A, geometric mean if determined several times, read-out: IC50 OX2
Procedure: (§1) Antagonistic activities on both orexin receptors have been measured for each example compound using the following procedure:
(§2) In Vitro Assay: Intracellular Calcium Measurements:
(§3) Chinese hamster ovary (CHO) cells expressing the human orexin-1 receptor and the human orexin-2 receptor, respectively, are grown in culture medium (Ham F-12 with L-Glutamine) containing 300 μg/mL G418, 100 U/mL penicillin, 100 μg/mL streptomycin and 10% heat inactivated fetal calf serum (FCS). The cells are seeded at 20,000 cells/well into 384-well black clear bottom sterile plates (Greiner). The seeded plates are incubated overnight at 37° C. in 5% CO2. Human orexin-A as an agonist is prepared as 1 mM stock solution in MeOH:water (1:1), diluted in HBSS containing 0.1% bovine serum albumin (BSA), NaHCO3: 0.375 g/L and 20 mM HEPES for use in the assay at a final concentration of 3 nM.
(§4) Antagonists are prepared as 10 mM stock solution in DMSO, then diluted in 384-well plates using DMSO followed by a transfer of the dilutions into in HBSS containing 0.1% bovine serum albumin (BSA), NaHCO3: 0.375 g/L and 20 mM HEPES. On the day of the assay, 50 μL of staining buffer (HBSS containing 1% FCS, 20 mM HEPES, NaHCO3: 0.375 g/L, 5 mM probenecid (Sigma) and 3 μM of the fluorescent calcium indicator fluo-4 AM (1 mM stock solution in DMSO, containing 10% pluronic) is added to each well. The 384-well cell-plates are incubated for 50 min at 37° C. in 5% CO2 followed by equilibration at rt for 30 min before measurement.
(§5) Within the Fluorescent Imaging Plate Reader (FLIPR Tetra, Molecular Devices), antagonists are added to the plate in a volume of 10 μL/well, incubated for 120 min and finally 10 μL/well of agonist is added. Fluorescence is measured for each well at 1 second intervals, and the height of each fluorescence peak is compared to the height of the fluorescence peak induced by 3 nM orexin-A with vehicle in place of antagonist. The IC50 value (the concentration of compound needed to inhibit 50% of the agonistic response) is determined and may be normalized using the obtained IC50 value of an on-plate reference compound. Optimized conditions were achieved by adjustment of pipetting speed and cell splitting regime. The calculated IC50 values may fluctuate depending on the daily cellular assay performance. Fluctuations of this kind are known to those skilled in the art. In the case where IC50 values have been determined several times for the same compound, the geometric mean has been given.

human orexin-1 receptor = human orexin-1 receptor (Homo sapiens (Human), UniProt O43613); assay: as above; type: cell-based; details: CHO cells expressing human orexin-1 receptor, 3 nM orexin-A, geometric mean if determined several times, read-out: IC50 OX1
Procedure: as §1, §2, §3, §4, §5

Chain of human orexin-2 receptor (O43614 whole entry): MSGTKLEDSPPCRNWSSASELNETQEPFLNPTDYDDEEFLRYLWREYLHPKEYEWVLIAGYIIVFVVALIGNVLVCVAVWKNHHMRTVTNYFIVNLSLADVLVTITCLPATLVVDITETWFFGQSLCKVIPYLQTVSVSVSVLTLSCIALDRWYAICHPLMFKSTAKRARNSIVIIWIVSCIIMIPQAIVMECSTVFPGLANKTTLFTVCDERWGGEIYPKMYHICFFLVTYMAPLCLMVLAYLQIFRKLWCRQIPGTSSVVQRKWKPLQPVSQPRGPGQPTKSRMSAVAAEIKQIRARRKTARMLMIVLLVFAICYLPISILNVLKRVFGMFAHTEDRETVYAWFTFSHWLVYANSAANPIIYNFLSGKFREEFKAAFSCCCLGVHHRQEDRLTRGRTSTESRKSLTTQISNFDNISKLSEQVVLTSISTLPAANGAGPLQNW
Chain of human orexin-1 receptor (O43613 whole entry): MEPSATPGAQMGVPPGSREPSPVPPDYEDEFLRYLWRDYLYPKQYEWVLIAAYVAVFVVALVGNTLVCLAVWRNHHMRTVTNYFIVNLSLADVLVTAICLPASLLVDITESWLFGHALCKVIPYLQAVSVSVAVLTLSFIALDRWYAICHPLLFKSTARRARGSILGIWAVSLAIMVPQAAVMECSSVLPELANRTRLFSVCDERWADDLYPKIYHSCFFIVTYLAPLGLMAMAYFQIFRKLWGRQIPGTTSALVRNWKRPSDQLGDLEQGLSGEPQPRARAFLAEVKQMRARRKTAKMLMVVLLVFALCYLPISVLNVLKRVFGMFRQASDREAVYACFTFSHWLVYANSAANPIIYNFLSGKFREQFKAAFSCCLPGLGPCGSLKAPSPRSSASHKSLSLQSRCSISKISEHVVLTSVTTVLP

Compound	IC50 (human orexin-2 receptor) [nM]	IC50 (human orexin-1 receptor) [nM]
Cc1ccc(-n2nccn2)c(C(=O)N2CC[C@H]2c2nc(-c3ccccc3C)no2)c1 [Example 1, (5-Methyl-2-[1,2,3]triazol-2-yl-phenyl)-[(S)-2-(3-o-tolyl-[1,2,4]oxadiazol-5-yl)-azetidin-1-yl]-methanone]	19	1220
Cc1ccc(-n2nccn2)c(C(=O)N2CC[C@H]2c2nc(-c3cccc(F)c3C)no2)c1 [Example 2, {(S)-2-[3-(3-Fluoro-2-methyl-phenyl)-[1,2,4]oxadiazol-5-yl]-azetidin-1-yl}-(5-methyl-2-[1,2,3]triazol-2-yl-phenyl)-methanone]	9	713
Cc1ccc(-c2noc([C@@H]3CCN3C(=O)c3cc(C)ccc3-n3nccn3)n2)cc1 [Example 3, (5-Methyl-2-[1,2,3]triazol-2-yl-phenyl)-[(S)-2-(3-p-tolyl-[1,2,4]oxadiazol-5-yl)-azetidin-1-yl]-methanone]	180	2110
COc1ccccc1-c1noc([C@@H]2CCN2C(=O)c2cc(C)ccc2-n2nccn2)n1 [Example 4, {(S)-2-[3-(2-Methoxy-phenyl)-[1,2,4]oxadiazol-5-yl]-azetidin-1-yl}-(5-methyl-2-[1,2,3]triazol-2-yl-phenyl)-methanone]	38	1300
COc1cccc(-c2noc([C@@H]3CCN3C(=O)c3cc(C)ccc3-n3nccn3)n2)c1 [Example 5, {(S)-2-[3-(3-Methoxy-phenyl)-[1,2,4]oxadiazol-5-yl]-azetidin-1-yl}-(5-methyl-2-[1,2,3]triazol-2-yl-phenyl)-methanone]	25	1190
CCCOc1ccccc1-c1noc([C@@H]2CCN2C(=O)c2cc(C)ccc2-n2nccn2)n1 [Example 6, (5-Methyl-2-[1,2,3]triazol-2-yl-phenyl)-{(S)-2-[3-(2-propoxy-phenyl)-[1,2,4]oxadiazol-5-yl]-azetidin-1-yl}-methanone]	115	472
Cc1ccc(-n2nccn2)c(C(=O)N2CC[C@H]2c2nc(-c3cccc(Cl)c3C)no2)c1 [Example 7, {(S)-2-[3-(3-Chloro-2-methyl-phenyl)-[1,2,4]oxadiazol-5-yl]-azetidin-1-yl}-(5-methyl-2-[1,2,3]triazol-2-yl-phenyl)-methanone]	10	120
Cc1ccc(-n2nccn2)c(C(=O)N2CC[C@H]2c2nc(-c3c(C)cccc3F)no2)c1 [Example 8, {(S)-2-[3-(2-Fluoro-6-methyl-phenyl)-[1,2,4]oxadiazol-5-yl]-azetidin-1-yl}-(5-methyl-2-[1,2,3]triazol-2-yl-phenyl)-methanone]	115	3430
CCOc1c(F)cccc1-c1noc([C@@H]2CCN2C(=O)c2cc(C)ccc2-n2nccn2)n1 [Example 9, {(S)-2-[3-(2-Ethoxy-3-fluoro-phenyl)-[1,2,4]oxadiazol-5-yl]-azetidin-1-yl}-(5-methyl-2-[1,2,3]triazol-2-yl-phenyl)-methanone]	10	134
Cc1ccc(-n2nccn2)c(C(=O)N2CC[C@H]2c2nc(-c3cc(C)ccc3C)no2)c1 [Example 10, {(S)-2-[3-(2,5-Dimethyl-phenyl)-[1,2,4]oxadiazol-5-yl]-azetidin-1-yl}-(5-methyl-2-[1,2,3]triazol-2-yl-phenyl)-methanone]	17	335
Cc1ccc(-n2nccn2)c(C(=O)N2CC[C@H]2c2nc(-c3cc(F)cc(F)c3)no2)c1 [Example 11, {(S)-2-[3-(3,5-Difluoro-phenyl)-[1,2,4]oxadiazol-5-yl]-azetidin-1-yl}-(5-methyl-2-[1,2,3]triazol-2-yl-phenyl)-methanone]	280	2320
Cc1ccc(-n2nccn2)c(C(=O)N2CC[C@H]2c2nc(-c3ccc(F)c(F)c3)no2)c1 [Example 12, {(S)-2-[3-(3,4-Difluoro-phenyl)-[1,2,4]oxadiazol-5-yl]-azetidin-1-yl}-(5-methyl-2-[1,2,3]triazol-2-yl-phenyl)-methanone]	187	2490
Cc1cccc(-c2noc([C@@H]3CCN3C(=O)c3cc(C)ccc3-n3nccn3)n2)c1 [Example 13, (5-Methyl-2-[1,2,3]triazol-2-yl-phenyl)-[(S)-2-(3-m-tolyl-[1,2,4]oxadiazol-5-yl)-azetidin-1-yl]-methanone]	40	1160
Cc1ccc(-n2nccn2)c(C(=O)N2CC[C@H]2c2nc(-c3ccccc3Cl)no2)c1 [Example 14, {(S)-2-[3-(2-Chloro-phenyl)-[1,2,4]oxadiazol-5-yl]-azetidin-1-yl}-(5-methyl-2-[1,2,3]triazol-2-yl-phenyl)-methanone]	40	1040
Cc1ccc(-n2nccn2)c(C(=O)N2CC[C@H]2c2nc(-c3ccccc3OC(F)(F)F)no2)c1 [Example 15, (5-Methyl-2-[1,2,3]triazol-2-yl-phenyl)-{(S)-2-[3-(2-trifluoromethoxy-phenyl)-[1,2,4]oxadiazol-5-yl]-azetidin-1-yl}-methanone]	15	116
COc1c(F)cccc1-c1noc([C@@H]2CCN2C(=O)c2cc(C)ccc2-n2nccn2)n1 [Example 16, {(S)-2-[3-(3-Fluoro-2-methoxy-phenyl)-[1,2,4]oxadiazol-5-yl]-azetidin-1-yl}-(5-methyl-2-[1,2,3]triazol-2-yl-phenyl)-methanone]	17	641
COc1cc(C(=O)N2CC[C@H]2c2nc(-c3cccc(F)c3OC)no2)c(-n2nccn2)cc1C [Example 17, {(S)-2-[3-(3-Fluoro-2-methoxy-phenyl)-[1,2,4]oxadiazol-5-yl]-azetidin-1-yl}-(5-methoxy-4-methyl-2-[1,2,3]triazol-2-yl-phenyl)-methanone]	9	439
Cc1cc(C(=O)N2CC[C@H]2c2nc(-c3ccccc3OC(F)(F)F)no2)c(-n2nccn2)cc1C [Example 18, (4,5-Dimethyl-2-[1,2,3]triazol-2-yl-phenyl)-{(S)-2-[3-(2-trifluoromethoxy-phenyl)-[1,2,4]oxadiazol-5-yl]-azetidin-1-yl}-methanone]	5	160
COc1c(F)cccc1-c1noc([C@@H]2CCN2C(=O)c2ccc(C)cc2-n2nccn2)n1 [Example 19, {(S)-2-[3-(3-Fluoro-2-methoxy-phenyl)-[1,2,4]oxadiazol-5-yl]-azetidin-1-yl}-(4-methyl-2-[1,2,3]triazol-2-yl-phenyl)-methanone]	9	44
COc1c(F)cccc1-c1noc([C@@H]2CCN2C(=O)c2ccc(C)cc2-n2nccn2)n1 [Example 20, {(S)-2-[3-(3-Fluoro-2-methoxy-phenyl)-[1,2,4]oxadiazol-5-yl]-azetidin-1-yl}-(4-methyl-2-[1,2,3]triazol-2-yl-phenyl)-methanone]	33	634
Cc1cc(C(=O)N2CC[C@H]2c2nc(-c3cccc(F)c3C)no2)c(-n2nccn2)cc1C [Example 21, (4,5-Dimethyl-2-[1,2,3]triazol-2-yl-phenyl)-{(S)-2-[3-(3-fluoro-2-methyl-phenyl)-[1,2,4]oxadiazol-5-yl]-azetidin-1-yl}-methanone]	4	173
